Source: US20240158446A1, “CYCLIC COMPOUND HAVING SELECTIVE INHIBITORY ACTION ON KRAS OVER HRAS AND NRAS” (CHUGAI SEIYAKU KABUSHIKI KAISHA, priority 2021, published 2024)

What was measured:
[1] = biological target: GDP-bound NRAS wild-type protein (Homo sapiens, UniProt P01111); test: Binding to NRAS by surface plasmon resonance (SPR), Single Cycle Kinetics; settings: SPR, GDP-bound NRAS wild-type protein vs GDP-bound KRAS wild-type protein
[2] = biological target: GDP-bound HRAS wild-type protein (Homo sapiens, UniProt P01112); test: Binding to HRAS by surface plasmon resonance (SPR), Single Cycle Kinetics; settings: SPR, GDP-bound HRAS wild-type protein vs GDP-bound KRAS wild-type protein
Sequence of GDP-bound HRAS wild-type protein (P01112 whole entry): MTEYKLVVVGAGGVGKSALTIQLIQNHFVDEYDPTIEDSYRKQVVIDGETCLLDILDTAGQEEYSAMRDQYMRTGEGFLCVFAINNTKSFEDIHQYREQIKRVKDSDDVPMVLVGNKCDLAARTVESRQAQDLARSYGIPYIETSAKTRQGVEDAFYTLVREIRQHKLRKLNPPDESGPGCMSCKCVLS

Sequence of GDP-bound NRAS wild-type protein (P01111 whole entry): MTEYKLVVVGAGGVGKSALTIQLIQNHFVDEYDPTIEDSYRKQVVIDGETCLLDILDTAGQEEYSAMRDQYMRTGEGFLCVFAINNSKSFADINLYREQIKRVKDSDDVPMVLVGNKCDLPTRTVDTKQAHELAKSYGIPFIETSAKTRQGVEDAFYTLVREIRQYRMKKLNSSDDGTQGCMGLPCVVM

`CC[C@H](C)[C@@H]1NC(=O)[C@H](CC(C)C)N(C)C(=O)C[C@@H](C(=O)N2CCOCC2)N(C)C(=O)[C@H](C2CCCC2)N(C)C(=O)C2(CCC2)NC(=O)[C@@H]2[C@H](OC)CCN2C(=O)[C@H](CCc2cc(F)c(C(F)(F)F)c(F)c2)NC(=O)CN(C)C(=O)[C@H](Cc2ccc(C(F)(F)F)cc2)N2CCCC[C@@H](C2=O)N(C)C(=O)CN(C)C1=O` [PP1078] was tested. Which “NRAS/KRAS (ratio of KD value for NRAS to KD value for KRAS)” value [1] did it give?
Its value is “B (a compound having 3 or more and less than 10 is denoted as B)”.

What about the “HRAS/KRAS (ratio of KD value for HRAS to KD value for KRAS)” value [2] of the same molecule?
Its value is “B (a compound having 3 or more and less than 10 is denoted as B)”.

Which “NRAS/KRAS (ratio of KD value for NRAS to KD value for KRAS)” value [1] does the source give for `CCO[C@@H]1CCN2C(=O)[C@H](CCc3cc(F)c(C(F)(F)F)c(F)c3)NC(=O)CN(C)C(=O)[C@H](Cc3ccc(C(F)(F)F)cc3)N3CCCCC[C@@H](C3=O)N(C)C(=O)CN(C)C(=O)[C@H]([C@@H](C)CC)NC(=O)[C@H](CC(C)C)N(C)C(=O)C[C@@H](C(=O)N3CCOCC3)N(C)C(=O)[C@H](C3CCCC3)N(C)C(=O)C3(CCC3)NC(=O)[C@H]12` [PP1082] here?
Its value is “A (a compound having 10 or more and less than 20 is denoted as A)”.

What about the “HRAS/KRAS (ratio of KD value for HRAS to KD value for KRAS)” value [2] of the same molecule?
The value was “B (a compound having 3 or more and less than 10 is denoted as B)”.

Which “NRAS/KRAS (ratio of KD value for NRAS to KD value for KRAS)” value [1] does the source give for `CCCO[C@@H]1CCN2C(=O)[C@H](CCc3cc(F)c(C(F)(F)F)c(F)c3)NC(=O)CN(C)C(=O)[C@H](Cc3ccc(C(F)(F)F)cc3)N3CCCCC[C@@H](C3=O)N(C)C(=O)CN(C)C(=O)[C@H]([C@@H](C)CC)NC(=O)[C@H](CC(C)C)N(C)C(=O)C[C@@H](C(=O)N3CCOCC3)N(C)C(=O)[C@H](C3CCCC3)N(C)C(=O)C3(CCC3)NC(=O)[C@H]12` [PP1083] here?
The value was “B (a compound having 3 or more and less than 10 is denoted as B)”.

And the “HRAS/KRAS (ratio of KD value for HRAS to KD value for KRAS)” value [2]?
Its value is “B (a compound having 3 or more and less than 10 is denoted as B)”.

`CC[C@H](C)[C@@H]1NC(=O)[C@H](CC(C)C)N(C)C(=O)C[C@@H](C(=O)N2CCOCC2)N(C)C(=O)[C@H](C2CCCC2)N(C)C(=O)C2(CCC2)NC(=O)[C@@H]2[C@H](OC)CCN2C(=O)[C@H](CCc2cc(F)c(C(F)(F)F)c(F)c2)NC(=O)CN(C)C(=O)[C@H](Cc2ccc(C(F)(F)F)cc2)N2CCCC[C@@H](C2=O)N(C)C(=O)CN(C)C1=O` [PP1084] was tested. Which “NRAS/KRAS (ratio of KD value for NRAS to KD value for KRAS)” value [1] did it give?
The value was “C (A compound having a KD ratio of 0.1 or more and less than 3 is denoted as C)”.

And the “HRAS/KRAS (ratio of KD value for HRAS to KD value for KRAS)” value [2]?
The value was “B (a compound having 3 or more and less than 10 is denoted as B)”.

How did the “NRAS/KRAS (ratio of KD value for NRAS to KD value for KRAS)” value [1] turn out when `CCO[C@@H]1C[C@H]2C(=O)NC3(CCC3)C(=O)N(C)[C@@H](C3CCCC3)C(=O)N(C)[C@H](C(=O)N3C4CCC3COC4)CC(=O)N(C)[C@@H](CC)C(=O)N[C@@H]([C@@H](C)CC)C(=O)N(C)CC(=O)N(C)[C@H]3C/C=C\CCN(C3=O)[C@@H](Cc3ccc(C(F)(F)F)cc3)C(=O)N(C)CC(=O)N[C@@H](CCc3cc(F)c(C(F)(F)F)c(F)c3)C(=O)N2C1` [PP1093] was run?
The value was “AA (a compound having 20 or more is denoted as AA)”.

What about the “HRAS/KRAS (ratio of KD value for HRAS to KD value for KRAS)” value [2] of the same molecule?
The value was “A (a compound having 10 or more and less than 20 is denoted as A)”.

Which results are given for `CC[C@H](C)[C@@H]1NC(=O)[C@H](CC(C)C)N(C)C(=O)C[C@@H](C)N(C)C(=O)[C@H](C2CCCC2)N(C)C(=O)C2(CCC2)NC(=O)[C@@H]2CCCN2C(=O)[C@H](CCc2cc(F)c(C(F)(F)F)c(F)c2)NC(=O)CN(C)C(=O)[C@H](Cc2ccc(C(F)(F)F)cc2)N2CC/C=C\C[C@@H](C2=O)N(C)C(=O)CN(C)C1=O` [PP1099]?
NRAS/KRAS (ratio of KD value for NRAS to KD value for KRAS) [1]: B (a compound having 3 or more and less than 10 is denoted as B); HRAS/KRAS (ratio of KD value for HRAS to KD value for KRAS) [2]: A (a compound having 10 or more and less than 20 is denoted as A)
